Assay: Stability of compound A microspheres: degradation products by HPLC after manufacture, γ-irradiation and storage
Assay type: physicochemical
Details: for Increase of degradation product (%) after storage at 5°C / Increase of degradation product (%) after storage at 25°C: further increase (+) on storage; for degradation: during manufacture, sterilization and 1 month storage (5°C); for Increase of degradation product (%) after man. + γ-irrad. / Increase of degradation product (%) after manufacture: microspheres, pilot batches
Method: Microparticles were produced by a modified triple-emulsion technique. Compound A pamoate salt was dispersed in a small amount of water (14 mg pamoate salt in 0.1 ml) and the dispersion was intensively homogenized using an Ultra-Turrax T25 (Janke & Kunkel IKA-Werk) into a solution (10-25%) of DL-PLG-GLU in methylene chloride (emulsion process). Alternatively, compound A pamoate salt was directly dispersed into the solution of polymer in methylene chloride (suspension process). The resulting primary water/oil (W/O) emulsion or suspension (S/O) was then intensively mixed with the external phase (in a ratio of 1:40), a gelatin containing aqueous solution. After stirring for one hour in order to evaporate the methylene chloride, the generated microspheres were collected by filtration, washed with water and dried under high vacuum at room temperature for 1 - 3 days. Storage was effected at 5°C. Sterilization was effected by γ-irridation (25 kGy required) by using nitrogen as a protecting gas.
Compound A content and purity of the microparticles was determined by HPLC (RP-18 columns, acetonitril - tetramethyl ammonium hydroxide/water gradient) after extraction of the peptide from the microspheres using tetrahydrofuran acetate buffer, pH 4.2 (1:1).
The generation of degradation products of compound A during the manufacture process, γ-irradiation and subsequent strorage at various temperatures is represented in Table 2. Potential stability problems arose with the acetate and the phosphate salts of compound A: during manufacture, sterilization and 1 month storage (5°C) 5 - 10% degradation occurred. These problems could be circumvented by the use of the pamoate. After manufacture, sterilization and three months of storage even at 25°C there was an increase of degradation products of less than 1.5%, more particularly of less than 0.5% after manufacture, less than 1.0% from the beginning of manufacture to just after irradiation and , inclusive of storage for 3 months at 25°C less than 1.5%.

Row | Increase of degradation product (%) after storage at 5°C (1 month) | Increase of degradation product (%) after storage at 25°C (1 month) | degradation | Increase of degradation product (%) after man. + γ-irrad. | Increase of degradation product (%) after manufacture | Increase of degradation product (%) after storage at 5°C (3 months) | Increase of degradation product (%) after storage at 25°C (3 months) | increase of degradation products (after manufacture) | increase of degradation products (after manufacture, sterilization and three months of storage at 25°C) | increase of degradation products (from the beginning of manufacture to just after irradiation) | SMILES
1 | + 0.6% | + 1.3% | 5 - 10% | 4.2 - 8.3% | 0.4 - 4.2% |  |  |  |  |  | CC(=O)N[C@H](Cc1ccc2ccccc2c1)C(=O)N[C@H](Cc1ccc(Cl)cc1)C(=O)N[C@H](Cc1c[nH]c2ccccc12)C(=O)N[C@@H](CO)C(=O)N[C@@H](Cc1ccc(O)cc1)C(=O)N[C@H](CCCCNCC(O)CO)C(=O)N[C@@H](CC(C)C)C(=O)N[C@@H](CCCCNCC(O)CO)C(=O)N1CCC[C@H]1C(=O)N[C@H](C)C(N)=O (single isomer, unassigned) [Compound A acetate]
2 |  |  |  | 0.4 - 0.8% | 0.1 - 0.4% | + 0.4% | + 0.6% | less than 0.5% | less than 1.5% | less than 1.0% | CC(=O)N[C@H](Cc1ccc2ccccc2c1)C(=O)N[C@H](Cc1ccc(Cl)cc1)C(=O)N[C@H](Cc1c[nH]c2ccccc12)C(=O)N[C@@H](CO)C(=O)N[C@@H](Cc1ccc(O)cc1)C(=O)N[C@H](CCCCNCC(O)CO)C(=O)N[C@@H](CC(C)C)C(=O)N[C@@H](CCCCNCC(O)CO)C(=O)N1CCC[C@H]1C(=O)N[C@H](C)C(N)=O (single isomer, unassigned) [Compound A pamoate]
3 | + 0.7% | + 1.6% | 5 - 10% | 7.0 - 9.0% | 1.2 - 3.5% |  |  |  |  |  | CC(=O)N[C@H](Cc1ccc2ccccc2c1)C(=O)N[C@H](Cc1ccc(Cl)cc1)C(=O)N[C@H](Cc1c[nH]c2ccccc12)C(=O)N[C@@H](CO)C(=O)N[C@@H](Cc1ccc(O)cc1)C(=O)N[C@H](CCCCNCC(O)CO)C(=O)N[C@@H](CC(C)C)C(=O)N[C@@H](CCCCNCC(O)CO)C(=O)N1CCC[C@H]1C(=O)N[C@H](C)C(N)=O (single isomer, unassigned) [Compound A phosphate]

Reference: patent EP0626170A2, “Stabilisation of pharmacologically active compounds in sustained release compositions” (SANDOZ LTD., priority 1993, dated 1994)
